From ChEMBL document CHEMBL4002620, “Synthesis of Vorinostat and cholesterol conjugate to enhance the cancer cell uptake selectivity” (Bioorg Med Chem Lett, 2017)

What was measured:
[1] = Solubility of the compound in aqueous solution at 20 uM; format: physicochemical; conditions: buffer
[2] = system: NCI-H292; assay: cells; format: functional, cell-based; conditions: Homo sapiens, NCI-H292, 72 h
Description: Growth inhibition of human NCI-H292 cells in FBS containing medium after 72 hrs using compound after sonication in presence of LDL by MTT assay

[3] = system: NCI-H292; assay: cells; format: functional, cell-based; conditions: Homo sapiens, NCI-H292, 72 h; remark: listed apart in the source
Description: Growth inhibition of human NCI-H292 cells after 72 hrs by MTT assay

[4] = Drug metabolism in human NCI-H292 cells assessed as compound hydrolysis by measuring increase in 4-amino SAHA formation after 30 mins by HPLC-ESI-MS analysis; format: ADME, cell-based; conditions: nci-h292, 0.5 h
[5] = system: NCI-H292; assay: cells; format: functional, cell-based; conditions: Homo sapiens, NCI-H292, 72 h; remark: listed apart in the source
Description: Growth inhibition of human NCI-H292 cells after 72 hrs in presence of LDL by MTT assay

[6] = system: NCI-H292; assay: cells; format: functional, cell-based; conditions: Homo sapiens, NCI-H292, 72 h; remark: listed apart in the source
Description: Growth inhibition of human NCI-H292 cells in LDL depleted FBS containing medium after 72 hrs using compound after sonication in presence of LDL by MTT assay

[7] = Solubility of the compound in aqueous solution at 500 uM in presence of LDL; format: physicochemical; conditions: buffer

| Structure (SMILES) | solubility [1] | IC50 [2] [µM] | IC50 [3] [µM] | Drug metabolism [4] | IC50 [5] [µM] | IC50 [6] [µM] | solubility [7] |
| --- | --- | --- | --- | --- | --- | --- | --- |
| CC(C)CCC[C@@H](C)[C@H]1CC[C@H]2[C@@H]3CC=C4C[C@@H](OC(=O)Nc5ccc(NC(=O)CCCCCCC(=O)NO)cc5)CC[C@]4(C)[C@H]3CC[C@]12C | Insoluble | > 500 | > 500 | Metabolite_Detected | > 500 | 91.2 | Soluble |
| Nc1ccc(NC(=O)CCCCCCC(=O)NO)cc1 |  | 14.7 | 2.77 |  | 14.9 | 7.8 |  |
